Laboratory results: ChEMBL document CHEMBL1124980, “2,4-Dihydro-3H-1,2,4-triazol-3-ones as anticonvulsant agents” (J Med Chem, 1990)
Activity calls are given as the source filed them. No cut-off for these calls is given here.

Columns and labels:
[1] = Tested for acute toxicity in mice after intraperitoneal administration; Value ranges from 400-800 mg/kg; assay type: organism-based; conditions: mouse, in vivo, ip
Glutamate NMDA receptor = experiment: Inhibition of [3H]CPP binding to N-methyl-D-aspartate glutamate receptor of rat cortical or hippocampal membranes; assay type: cell membranes, Membrane
[2] = Tested for acute toxicity in mice after intraperitoneal administration; assay type: organism-based; conditions: mouse, in vivo, ip
Mus musculus [3] = experiment: Tested for inhibition of pentylenetetrazole induced seizures in mice; Value is 1/16 of the LD50; assay type: functional
[4] = molecular target: GABA-A receptor; anion channel; experiment: In vitro binding affinity for GABA-A receptor in rat cortical or hippocampal membranes using [3H]flunitrazepam
Mus musculus [5] = experiment: Tested for inhibition of maximal electroshock -induced seizures in mice; Value is 1/16 of the LD50; assay type: functional
Mus musculus [6] = experiment: Tested for inhibition of maximal electroshock -induced seizures in mice; Value is 1/8 of the LD50 range; assay type: functional
Mus musculus [7] = experiment: Tested for inhibition of pentylenetetrazole induced seizures in mice; Value is 1/4 of the LD50 range; assay type: functional
Mus musculus [8] = experiment: Tested for inhibition of pentylenetetrazole induced seizures in mice; Value is 1/8 of the LD50 range; assay type: functional
[9] = (§1) Tested for acute toxicity in mice after intraperitoneal administration; Value ranges from 200-400 mg/kg; assay type: organism-based; conditions: mouse, in vivo, ip
[10] = Tested for acute toxicity in mice after intraperitoneal administration; Value ranges from 400-800; assay type: organism-based; conditions: mouse, in vivo, ip
Gerbillinae [11] = experiment: Tested for its effect on hippocampal neuronal damage in gerbils activity; assay type: functional
Gerbillinae [12] = experiment: Tested for its effect on Hypoxia induced neuronal damage; assay type: functional
Mus musculus [13] = experiment: Tested for inhibition of maximal electroshock -induced seizures in mice; Value is 1/4 of the LD50 range; assay type: functional
Mus musculus [14] = experiment: Tested for inhibition of pentylenetetrazole induced seizures in mice; Value is 1/8 of the LD50; assay type: functional
Mus musculus [15] = species: Mus musculus; experiment: Tested for inhibition of pentylenetetrazole induced seizures in mice.; assay type: functional
Mus musculus [16] = species: Mus musculus; experiment: Tested for inhibition of 3-mercaptopropanoic acid induced seizures in mice.; assay type: functional
Mus musculus [17] = species: Mus musculus; experiment: Tested for inhibition of maximal electroshock -induced seizures in mice; Value ranges from 13-25; assay type: functional
Mus musculus [18] = species: Mus musculus; experiment: Tested for inhibition of strychnine-induced seizures in mice.; assay type: functional
Mus musculus [19] = species: Mus musculus; experiment: Tested for inhibition of quinoline-induced seizures in mice.; assay type: functional
[20] = Tested for acute toxicity in mice after intraperitoneal administration; Value ranges from 100-200 mg/kg; assay type: organism-based; conditions: mouse, in vivo, ip
Mus musculus [21] = species: Mus musculus; experiment: Tested for inhibition of maximal electroshock -induced seizures in mice.; assay type: functional
Mus musculus [22] = species: Mus musculus; experiment: Tested for inhibition of bicuculline induced seizures in mice.; assay type: functional
Mus musculus [23] = experiment: Tested for inhibition of pentylenetetrazole induced seizures in mice; Value is 1/16 of the LD50 range; assay type: functional
Mus musculus [24] = species: Mus musculus; experiment: Tested for inhibition of pentylenetetrazole induced seizures in mice; Value ranges from 100-200; assay type: functional
Mus musculus [25] = experiment: as §1; assay type: functional; conditions: ip
Mus musculus [26] = experiment: Tested for inhibition of quinoline-induced seizures in mice; g = maximum effect, 50% at 20 mg/kg; assay type: functional, organism-based; parameters: dose 20 mg/kg

## CCn1nc(-c2cccs2)n(C)c1=O
[1]
  LD50: 800 mg/kg

## Cn1c(O)nnc1-c1ccc(F)cc1
Glutamate NMDA receptor
  IC50: > 100 µM
[2]
  LD50: > 800 mg/kg
Mus musculus [3]
  Activity: >50 mg/kg
[4]
  IC50: > 100 µM
Mus musculus [5]
  Activity: >50 mg/kg

## CCn1c(-c2ccccc2)nn(C)c1=O
Mus musculus [6]
  Activity: 100 mg/kg
Mus musculus [7]
  Activity: 200 mg/kg
[1]
  LD50: 800 mg/kg

## CCn1c(O)nnc1-c1cccc(C(F)(F)F)c1
Mus musculus [8]
  Activity: 50 mg/kg
[9]
  LD50: 400 mg/kg

## CCn1nc(-c2ccc(Cl)cc2)n(CC)c1=O
Mus musculus [6]
  Activity: 50 mg/kg
Mus musculus [8]
  Activity: 50 mg/kg
[9]
  LD50: 400 mg/kg

## COc1ccc(-c2nnc(O)n2C)cc1
[2]
  LD50: > 800 mg/kg

## Cn1nc(-c2ccccc2)nc1O
[10]
  LD50: 800 mg/kg
Mus musculus [8]
  Activity: 100 mg/kg

## Cl.c1ccc(C2(N3CCCCC3)CCCCC2)cc1 [PHENCYCLIDINE HYDROCHLORIDE]
Gerbillinae [11]
  Damage score: 1.06
Gerbillinae [12]
  Damage score: <1.14

## Cn1nc(-c2ccccc2Cl)n(C)c1=O
Mus musculus [13]
  Activity: 200 mg/kg
Mus musculus [8]
  Activity: 50 mg/kg
[1]
  LD50: 800 mg/kg

## CCn1c(O)nnc1-c1ccccc1
[2]
  LD50: > 800 mg/kg
Mus musculus [14]
  Activity: >100 mg/kg

## CCCn1nc(-c2ccc(Cl)cc2)n(CC)c1=O
[1]
  LD50: 800 mg/kg

## NC(=O)N1c2ccccc2C=Cc2ccccc21 [CARBAMAZEPINE]
Mus musculus [15]
  ED50: > 200 mg/kg
Mus musculus [16]
  ED50: 86 mg/kg
Mus musculus [17]
  ED50: 25 mg/kg
Mus musculus [18]
  ED50: 61 mg/kg
Mus musculus [19]
  ED50: 25 mg/kg

## CCn1nc(-c2ccccc2)n(C)c1=O
Mus musculus [8]
  Activity: 100 mg/kg
[1]
  LD50: 800 mg/kg

## Cc1ccc(-c2nnc(O)n2C)cc1
[2]
  LD50: > 800 mg/kg
Mus musculus [14]
  Activity: >100 mg/kg

## CCCCOc1cc(-c2nnc(O)n2C)ccc1OC
[20]
  LD50: 200 mg/kg

## Cc1ccc(-c2nn(C)c(=O)n2C)cc1
[1]
  LD50: 800 mg/kg

## Cn1c(O)nnc1-c1cccs1
Glutamate NMDA receptor
  IC50: > 100 µM
[4]
  IC50: > 100 µM
[9]
  LD50: 400 mg/kg

## Cn1nc(-c2ccc(Cl)c(Cl)c2)n(C)c1=O
Mus musculus [21]
  Activity: 50 mg/kg
Mus musculus [15]
  Activity: 50 mg/kg
[20]
  LD50: 200 mg/kg

## O=C1CN=C(c2ccccc2Cl)c2cc([N+](=O)[O-])ccc2N1 [CLONAZEPAM]
Mus musculus [21]
  ED50: 50 mg/kg
Mus musculus [15]
  ED50: 0.06 mg/kg
Mus musculus [16]
  ED50: 0.2 mg/kg
Mus musculus [18]
  ED50: 2 mg/kg
Mus musculus [19]
  ED50: < 8 mg/kg
Mus musculus [22]
  ED50: 0.07 mg/kg

## CCC1(c2ccccc2)C(=O)NC(=O)NC1=O [PHENOBARBITAL]
Mus musculus [21]
  ED50: 20 mg/kg
Mus musculus [15]
  ED50: 24 mg/kg
Mus musculus [16]
  ED50: 30 mg/kg
Mus musculus [18]
  ED50: 52 mg/kg
Mus musculus [19]
  ED50: 52 mg/kg
Mus musculus [22]
  ED50: 9 mg/kg

## COc1ccc(-c2nn(C)c(=O)n2C)cc1
[1]
  LD50: 800 mg/kg

## Cn1c(O)nnc1-c1ccccc1F
[2]
  LD50: > 800 mg/kg
Mus musculus [23]
  Activity: >50 mg/kg

## COc1nnc(-c2ccccc2)n1C
[2]
  LD50: > 800 mg/kg

## Cn1c(O)nnc1-c1ccc(Cl)cc1
Glutamate NMDA receptor
  IC50: > 100 µM
[2]
  LD50: > 800 mg/kg
Mus musculus [3]
  Activity: >50 mg/kg
[4]
  IC50: > 100 µM
Mus musculus [5]
  Activity: >50 mg/kg

## CCn1c(-c2cccc(C(F)(F)F)c2)nn(C)c1=O
Mus musculus [6]
  Activity: 100 mg/kg
Glutamate NMDA receptor
  IC50: > 100 µM
Mus musculus [23]
  Activity: 50 mg/kg
[4]
  IC50: > 100 µM
[1]
  LD50: 800 mg/kg

## Cn1c(O)nnc1-c1ccncc1
Glutamate NMDA receptor
  IC50: > 100 µM
[2]
  LD50: > 800 mg/kg
[4]
  IC50: > 100 µM

## CCCC(CCC)C(=O)O [VALPROIC ACID]
Mus musculus [21]
  ED50: > 200 mg/kg
Mus musculus [18]
  ED50: > 200 mg/kg
Mus musculus [19]
  ED50: > 256 mg/kg
Mus musculus [22]
  ED50: 28 mg/kg
Mus musculus [24]
  ED50: 200 mg/kg

## CCCCOc1cc(-c2nn(C)c(=O)n2C)ccc1OC
Glutamate NMDA receptor
  IC50: > 100 µM
Mus musculus [8]
  Activity: 100 mg/kg
[4]
  IC50: 33.2 µM
[1]
  LD50: 800 mg/kg

## Cn1nc(-c2ccc(F)cc2)n(C)c1=O
Mus musculus [13]
  Activity: 200 mg/kg
Mus musculus [7]
  Activity: 200 mg/kg
[1]
  LD50: 800 mg/kg

## Cn1nc(-c2ccccc2)n(C)c1=O
Mus musculus [8]
  Activity: 100 mg/kg
[1]
  LD50: 800 mg/kg

## Cn1nc(-c2ccc(Cl)cc2)n(C)c1=O
Mus musculus [6]
  Activity: 100 mg/kg
Glutamate NMDA receptor
  IC50: > 100 µM
Mus musculus [23]
  Activity: 50 mg/kg
[4]
  IC50: > 100 µM
[1]
  LD50: 800 mg/kg

## Cn1nc(-c2ccccc2F)n(C)c1=O
Mus musculus [8]
  Activity: 100 mg/kg
[1]
  LD50: 800 mg/kg

## Cn1c(O)nnc1-c1ccccc1Cl
[10]
  LD50: 800 mg/kg
Mus musculus [6]
  Activity: 100 mg/kg
Gerbillinae [11]
  Damage score: 0.22
Glutamate NMDA receptor
  IC50: > 100 µM
Mus musculus [23]
  Activity: 50 mg/kg
Mus musculus [19]
  ED50: ~65 mg/kg
Gerbillinae [12]
  Damage score: 2.95
[4]
  IC50: > 100 µM

## Cn1nc(-c2cccs2)n(C)c1=O
[1]
  LD50: 800 mg/kg

## CCn1c(O)nnc1-c1ccc(Cl)cc1
Gerbillinae [11]
  Damage score: 0.33
Glutamate NMDA receptor
  IC50: > 100 µM
Mus musculus [25]
  LD50: 400 mg/kg
Mus musculus [23]
  Activity: 25 mg/kg
Mus musculus [19]
  ED50: ~51 mg/kg
Gerbillinae [12]
  Damage score: 2.64
[4]
  IC50: > 100 µM

## CN[C@H](CC(=O)O)C(=O)O [N-METHYL-D-ASPARTIC ACID (NMDA)]
Glutamate NMDA receptor
  IC50: 6 µM

## Cn1nc(-c2ccccc2)n(C)c1=S
[20]
  LD50: 200 mg/kg

## O=C1NC(=O)C(c2ccccc2)(c2ccccc2)N1 [PHENYTOIN]
Mus musculus [21]
  ED50: 26 mg/kg
Mus musculus [26]
  ED50: Active
Mus musculus [15]
  ED50: > 32 mg/kg
Mus musculus [16]
  ED50: 89 mg/kg
Mus musculus [18]
  ED50: > 200 mg/kg
Mus musculus [22]
  ED50: > 200 mg/kg

## CCn1c(-c2ccc(Cl)cc2)nn(C)c1=O
Mus musculus [21]
  ED50: 48 mg/kg
Mus musculus [15]
  ED50: 17 mg/kg
Mus musculus [6]
  Activity: 50 mg/kg
Gerbillinae [11]
  Damage score: 0.33
Mus musculus [16]
  ED50: 31 mg/kg
Glutamate NMDA receptor
  IC50: > 100 µM
Mus musculus [23]
  Activity: 20 mg/kg
Mus musculus [18]
  ED50: ~101 mg/kg
Mus musculus [19]
  ED50: 26 mg/kg
Mus musculus [22]
  ED50: 15 mg/kg
Gerbillinae [12]
  Damage score: 0.97
[4]
  IC50: > 100 µM
[9]
  LD50: 400 mg/kg

## Cn1c(O)nnc1-c1ccccc1
Mus musculus [6]
  Activity: >100 mg/kg
Glutamate NMDA receptor
  IC50: > 100 µM
[2]
  LD50: > 800 mg/kg
Mus musculus [23]
  Activity: >50 mg/kg
[4]
  IC50: > 100 µM

## Oc1n[nH]c(-c2ccccc2)n1
[2]
  LD50: > 800 mg/kg

## CCn1nc(-c2ccc(Cl)cc2)n(C)c1=O
Mus musculus [23]
  Activity: 50 mg/kg
[1]
  LD50: 800 mg/kg

## Cn1c(O)nnc1-c1ccc(Cl)c(Cl)c1
Mus musculus [13]
  Activity: 100 mg/kg
Glutamate NMDA receptor
  IC50: > 100 µM
Mus musculus [7]
  Activity: 100 mg/kg
[4]
  IC50: > 100 µM
[9]
  LD50: 400 mg/kg
